According to patent US20220000110A1, “COMPOSITIONS COMPRISING PYRIDINE CARBOXYLATE HERBICIDES AND CELLULOSE BIOSYNTHESIS INHIBITOR HERBICIDES” (priority 2018, published 2022):

Legend:
Assay in all cases: Greenhouse postemergence herbicidal effect, visual injury after 20-22 d
Format in all cases: in vivo
[1] = tested on: Digitaria sanguinalis (large crabgrass); conditions: DIGSA
Description: (§1) Greenhouse Trial Methodology—Evaluation of Postemergence Herbicidal Effect
(§2) Seeds of the desired test plant species were planted in a 90:10% v/v (volume/volume) mixture of PRO-MIX® BX (Premier Tech Horticulture, Quakertown, Pa., USA) and PROFILE® GREENS GRADE™ (Profile Products LLC, Buffalo Grove, Ill., USA) planting mixture, which typically has a pH of 5.2 to 6.2 and an organic matter content of at least 50 percent, in plastic pots with a surface area of 103.2 square centimeters (cm^2). In some aspects, to help ensure good germination and healthy plants, a fungicide treatment and/or other chemical or physical treatment was applied. The plants were grown for 7-36 days (d) in a greenhouse with an approximate 14-hour (h) photoperiod which was maintained at about 23° C. during the day and 22° C. during the night. Nutrients and water were added on a regular basis and supplemental lighting was provided with overhead metal halide 1000-Watt lamps as necessary. The plants were employed for testing when they reached the second or third true leaf stage.
(§3) Emulsifiable concentrates of each of each pyridine carboxylate herbicide (Compound A or Compound B) were prepared at 100 grams acid equivalent per liter (g ae/L). The emulsifiable concentrates also included a safener, at 120 grams active ingredient per liter (g ai/L). An aliquot of each emulsifiable concentrate was placed in a 25 mL glass vial and diluted with an aqueous mixture of 1.25% (v/v) ACTIROB® B esterified rapeseed oil (Bayer Crop Science, Research Triangle Park, N.C., USA) or MSO® Concentrate with LECI-TECH® methylated soybean oil (Loveland Products, Loveland, Colo., USA) to obtain concentrated stock solutions at the highest application rate for each herbicide, based upon a 12 milliliter (mL) application volume at a rate of 187 liters per hectare (L/ha). The concentrated stock solutions were further diluted with an aqueous mixture of 1.25% v/v ACTIROB® B or MSO® Concentrate with LECI-TECH® to obtain stock solutions at reduced application rates for each herbicide. Spray solutions of the herbicide combinations (Compound A or Compound B plus the CBI herbicide) were prepared by adding weighed amounts or aliquots of the CBI herbicide to the stock solutions of Compound A or Compound B to form 12-mL spray solutions in two-way combinations.
(§4) The spray solutions were applied to the plant material with an overhead Mandel track sprayer equipped with 8002E nozzles calibrated to deliver 187 L/ha over an application area of 0.503 square meters (m^2) at a spray height of 18 inches (43 centimeters (cm)) above the average plant canopy. Control plants were sprayed in the same manner with the solvent blank. All pyridine carboxylate herbicide (component a) application rates are given as “g ae/ha” and all CBI herbicide (component b) application rates are given as “g ai/ha.”
(§5) The treated plants and control plants were placed in a greenhouse as described above and watered by sub-irrigation to prevent wash-off of the test compounds. After 20-22 d, the condition of the test plants as compared with that of the control plants was determined visually and scored on a scale of 0 to 100 percent where 0 corresponds to no injury and 100 corresponds to complete kill.

[2] = tested on: Setaria faberi (giant foxtail); conditions: SETFA
Description: as §1, §2, §3, §4, §5

[3] = tested on: Amaranthus retroflexus (pigweed); conditions: AMARE
Description: as §1, §2, §3, §4, §5

[4] = tested on: Echinochloa crus-galli (barnyard grass); conditions: ECHCG
Description: as §1, §2, §3, §4, §5

[5] = tested on: Viola tricolor (wild pansy); conditions: VIOTR
Description: as §1, §2, §3, §4, §5

[6] = tested on: Ipomoea hederacea (ivyleaf morningglory); conditions: IPOHE
Description: as §1, §2, §3, §4, §5

Kochia scoparia (kochia) = conditions: KCHSC
Description: as §1, §2, §3, §4, §5

[7] = tested on: Salsola kali (Russian thistle); conditions: SASKR
Description: as §1, §2, §3, §4, §5

[8] = tested on: Polygonum convolvulus (wild buckwheat); conditions: POLCO
Description: as §1, §2, §3, §4, §5

[9] = tested on: Brassica napus (spring rape); conditions: BRSNN
Description: as §1, §2, §3, §4, §5

[10] = tested on: Abutilon theophrasti (velvetleaf); conditions: ABUTH
Description: as §1, §2, §3, §4, §5

[11] = tested on: Lolium multiflorum (Italian rye grass); conditions: Table 2; LOLMU; Indaziflam 35 g/ha
Description: as §1, §2, §3, §4, §5

[12] = tested on: Cirsium arvense (Canadian thistle); conditions: CIRAR
Description: as §1, §2, §3, §4, §5

[13] = tested on: Chenopodium album L. (common lambsquarters); conditions: CHEAL
Description: as §1, §2, §3, §4, §5

[14] = tested on: Matricaria chamomilla (wild chamomile); conditions: MATCH
Description: as §1, §2, §3, §4, §5

[15] = tested on: Brassica napus (winter rape); conditions: BRSNW
Description: as §1, §2, §3, §4, §5

[16] = tested on: Stellaria media (chickweed); conditions: Table 1; STEME; Isoxaben 50 g/ha
Description: as §1, §2, §3, §4, §5

[17] = tested on: Sorghum vulgare (grain sorghum); conditions: Table 1; SORVU; Isoxaben 50 g/ha
Description: as §1, §2, §3, §4, §5

[18] = tested on: Oryza sativa (common rice); conditions: Table 1; ORYSA; Isoxaben 50 g/ha
Description: as §1, §2, §3, §4, §5

[19] = tested on: Rumex obtusifolius (broad-leaf dock); conditions: Table 1; RUMOB; Isoxaben 50 g/ha
Description: as §1, §2, §3, §4, §5

[20] = tested on: Cyperus esculentus (nutsedge); conditions: Table 1; CYPES; Isoxaben 50 g/ha
Description: as §1, §2, §3, §4, §5

Glycine max (soybean) = conditions: Table 1; GLXMA; Isoxaben 50 g/ha
Description: as §1, §2, §3, §4, §5

[21] = tested on: Euphorbia heterophylla (poinsettia); conditions: Table 1; EPHHL; Isoxaben 50 g/ha
Description: as §1, §2, §3, §4, §5

[22] = tested on: Helianthus annuus (common sunflower); conditions: Table 1; HELAN; Isoxaben 50 g/ha
Description: as §1, §2, §3, §4, §5

SMILES: Cc1ccc2c(c1)[C@H](Nc1nc(N)nc(C(C)F)n1)[C@@H](C)C2 (some centres unmarked) [Indaziflam, indaziflam, reference compound]
- Obs % visual injury ([1]; Table 2, Indaziflam 35 g/ha): 0%
- Obs % visual injury ([2]; Table 2, Indaziflam 35 g/ha): 0%
- Obs % visual injury ([3]; Table 3, Indaziflam 35 g/ha): 23%
- Obs % visual injury ([3]; Table 3, Indaziflam 70 g/ha): 33%
- Obs % visual injury ([4]; Table 2, Indaziflam 35 g/ha): 0%
- Obs % visual injury ([5]; Table 2, Indaziflam 35 g/ha): 5%
- Obs % visual injury ([6]; Table 2, Indaziflam 35 g/ha): 10%
- Obs % visual injury (Kochia scoparia (kochia); Table 2, Indaziflam 35 g/ha): 40%
- Obs % visual injury (Kochia scoparia (kochia); Table 3, Indaziflam 35 g/ha): 28%
- Obs % visual injury (Kochia scoparia (kochia); Table 3, Indaziflam 70 g/ha): 30%
- Obs % visual injury ([7]; Table 3, Indaziflam 35 g/ha): 55%
- Obs % visual injury ([7]; Table 3, Indaziflam 70 g/ha): 60%
- Obs % visual injury ([8]; Table 2, Indaziflam 35 g/ha): 10%
- Obs % visual injury ([8]; Table 3, Indaziflam 35 g/ha): 10%
- Obs % visual injury ([8]; Table 3, Indaziflam 70 g/ha): 13%
- Obs % visual injury ([9]; Table 2, Indaziflam 35 g/ha): 30%
- Obs % visual injury ([10]; Table 2, Indaziflam 35 g/ha): 60%
- Obs % visual injury [11]: 0%
- Obs % visual injury ([12]; Table 2, Indaziflam 35 g/ha): 5%
- Obs % visual injury ([13]; Table 3, Indaziflam 35 g/ha): 10%
- Obs % visual injury ([13]; Table 3, Indaziflam 70 g/ha): 10%
- Obs % visual injury ([14]; Table 3, Indaziflam 35 g/ha): 13%
- Obs % visual injury ([14]; Table 3, Indaziflam 70 g/ha): 38%
- Obs % visual injury ([15]; Table 3, Indaziflam 35 g/ha): 45%
- Obs % visual injury ([15]; Table 3, Indaziflam 70 g/ha): 45%

SMILES: CCC(C)(CC)c1cc(NC(=O)c2c(OC)cccc2OC)on1 [Isoxaben, isoxaben, reference compound]
- Obs % visual injury ([1]; Table 1, Isoxaben 50 g/ha): 0%
- Obs % visual injury ([2]; Table 1, Isoxaben 50 g/ha): 5%
- Obs % visual injury [16]: 0%
- Obs % visual injury ([3]; Table 1, Isoxaben 50 g/ha): 10%
- Obs % visual injury ([3]; Table 4, Isoxaben 50 g/ha): 20%
- Obs % visual injury ([3]; Table 4, Isoxaben 100 g/ha): 10%
- Obs % visual injury ([4]; Table 1, Isoxaben 50 g/ha): 5%
- Obs % visual injury [17]: 8%
- Obs % visual injury ([5]; Table 1, Isoxaben 50 g/ha): 0%
- Obs % visual injury ([6]; Table 1, Isoxaben 50 g/ha): 3%
- Obs % visual injury [18]: 0%
- Obs % visual injury [19]: 0%
- Obs % visual injury (Kochia scoparia (kochia); Table 1, Isoxaben 50 g/ha): 13%
- Obs % visual injury (Kochia scoparia (kochia); Table 4, Isoxaben 50 g/ha): 5%
- Obs % visual injury (Kochia scoparia (kochia); Table 4, Isoxaben 100 g/ha): 5%
- Obs % visual injury ([7]; Table 4, Isoxaben 50 g/ha): 0%
- Obs % visual injury ([7]; Table 4, Isoxaben 100 g/ha): 5%
- Obs % visual injury ([8]; Table 1, Isoxaben 50 g/ha): 0%
- Obs % visual injury ([8]; Table 4, Isoxaben 50 g/ha): 0%
- Obs % visual injury ([8]; Table 4, Isoxaben 100 g/ha): 0%
- Obs % visual injury [20]: 0%
- Obs % visual injury ([9]; Table 1, Isoxaben 50 g/ha): 55%
- Obs % visual injury (Glycine max (soybean)): 0%
- Obs % visual injury [21]: 15%
- Obs % visual injury ([10]; Table 1, Isoxaben 50 g/ha): 5%
- Obs % visual injury [22]: 18%
- Obs % visual injury ([12]; Table 1, Isoxaben 50 g/ha): 8%
- Obs % visual injury ([13]; Table 1, Isoxaben 50 g/ha): 0%
- Obs % visual injury ([13]; Table 4, Isoxaben 50 g/ha): 0%
- Obs % visual injury ([13]; Table 4, Isoxaben 100 g/ha): 0%
- Obs % visual injury ([14]; Table 4, Isoxaben 50 g/ha): 15%
- Obs % visual injury ([14]; Table 4, Isoxaben 100 g/ha): 15%
- Obs % visual injury ([15]; Table 4, Isoxaben 50 g/ha): 53%
- Obs % visual injury ([15]; Table 4, Isoxaben 100 g/ha): 60%
